Laboratory results reported in BindingDB's records for doi:10.1080/14756360701810207 (Gyeongsang National University, 2008).
Where “and” joins values, the source holds several entries; their conditions need not be identical. Equal entries are not always repeated.

Target: T1, Polyphenol oxidase 2 (Agaricus bisporus, UniProt O42713)
T1 sequence (O42713 whole entry): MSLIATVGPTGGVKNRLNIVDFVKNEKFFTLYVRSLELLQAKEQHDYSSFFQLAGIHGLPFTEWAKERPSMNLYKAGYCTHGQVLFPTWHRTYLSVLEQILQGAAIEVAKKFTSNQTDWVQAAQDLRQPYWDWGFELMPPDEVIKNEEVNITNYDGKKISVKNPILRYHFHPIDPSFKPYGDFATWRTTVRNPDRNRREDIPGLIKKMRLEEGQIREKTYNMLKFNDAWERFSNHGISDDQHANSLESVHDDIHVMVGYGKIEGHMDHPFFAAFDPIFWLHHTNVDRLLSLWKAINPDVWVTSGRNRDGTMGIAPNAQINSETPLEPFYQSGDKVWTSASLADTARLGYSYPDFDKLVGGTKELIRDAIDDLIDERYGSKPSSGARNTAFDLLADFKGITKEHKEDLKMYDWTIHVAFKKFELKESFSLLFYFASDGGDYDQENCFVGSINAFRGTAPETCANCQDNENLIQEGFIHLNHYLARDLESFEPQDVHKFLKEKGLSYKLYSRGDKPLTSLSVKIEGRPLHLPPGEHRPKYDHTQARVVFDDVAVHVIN
Experiment: Tyrosinase Assay
Details: 30 °C
Description: Mushroom tyrosinase using either L-DOPA or L-tyrosine as substrate. In spectrophotometric experiments, enzyme activity was monitored by dopachrome formation at 475 nm with a UV-Vis spectrophotometer (Spectro UV-Vis Double beam; UVD-3500, Labomed, Inc.) at 30 C.

| IC50 | Ki [µM] | Compound |
| --- | --- | --- |
| > 300 µM |  | CC(C)=CCc1c(-c2ccc(O)cc2O)oc2c3c(cc(O)c2c1=O)OC(C)(C)C=C3 [Morusin, 3] |
|  | 0.61 | O=c1cc(-c2ccc(O)cc2O)oc2cc(O)cc(O)c12 [Norartocarpetin, 5] |

Second part, the compound before the results:

| Compound | IC50 | Ki [µM] |
| --- | --- | --- |
| CC(C)=CCc1c(-c2ccc(O)cc2O)oc2c(CC=C(C)C)c(O)cc(O)c2c1=O | 135 µM and > 300 µM | 80.5 |
| C/C(=C\Cc1c(-c2ccc(O)cc2O)oc2c3c(cc(O)c2c1=O)OC(C)(CO)C=C3)CO (stereo not drawn) [Mormin, 1] | 87.8 µM and 215 µM | 49.2 |
| CC(C)=CC1Oc2cc(O)ccc2-c2oc3c4c(cc(O)c3c(=O)c21)OC(C)(C)C=C4 (stereo not drawn) [Cycolmorusin, 2] | 91.6 µM and 161 µM | 46.4 |
